{"source": "patent US4755517A", "about": "“Derivatives of xanthine, pharmaceutical compositions and methods of use therefor” (Warner-Lambert Company, priority 1986, dated 1988)", "key": {"mouse locomotor activity": {"tested_on": "mouse locomotor activity", "experiment": "Locomotor activity of mice, drug alone", "assay_type": "in vivo, Male Swiss-Webster mice", "conditions": "for percent suppression of locomotion: alone; for effect on spontaneous exploratory activity (in words): mice", "description": "Suspensions are ultrasonicated for 3 minutes."}, "adenosine A2 receptor": {"biological_target": "T1, adenosine A2 receptor (Rattus norvegicus, UniProt P30543)", "T1 construct": "from tissue; host or cells: rat striatal membranes", "T1 sequence (P30543 whole entry)": "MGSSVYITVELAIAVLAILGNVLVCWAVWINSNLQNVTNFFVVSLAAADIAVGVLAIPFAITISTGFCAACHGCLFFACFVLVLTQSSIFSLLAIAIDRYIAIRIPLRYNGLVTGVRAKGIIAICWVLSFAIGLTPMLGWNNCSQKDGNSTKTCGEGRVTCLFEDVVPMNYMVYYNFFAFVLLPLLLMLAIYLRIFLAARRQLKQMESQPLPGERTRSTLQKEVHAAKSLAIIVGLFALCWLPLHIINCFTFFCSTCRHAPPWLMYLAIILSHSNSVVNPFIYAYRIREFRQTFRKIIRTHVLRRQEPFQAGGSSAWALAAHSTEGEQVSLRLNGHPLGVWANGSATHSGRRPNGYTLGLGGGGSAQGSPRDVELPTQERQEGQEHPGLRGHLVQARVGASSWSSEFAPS", "experiment": "[3H]-NECA binding to rat striatal membranes (A2 affinity, RBA-2)"}, "adenosine A1 receptor": {"biological_target": "T2, adenosine A1 receptor (Rattus norvegicus, UniProt P25099)", "T2 construct": "from tissue; host or cells: rat whole brain membranes", "T2 sequence (P25099 1-326)": "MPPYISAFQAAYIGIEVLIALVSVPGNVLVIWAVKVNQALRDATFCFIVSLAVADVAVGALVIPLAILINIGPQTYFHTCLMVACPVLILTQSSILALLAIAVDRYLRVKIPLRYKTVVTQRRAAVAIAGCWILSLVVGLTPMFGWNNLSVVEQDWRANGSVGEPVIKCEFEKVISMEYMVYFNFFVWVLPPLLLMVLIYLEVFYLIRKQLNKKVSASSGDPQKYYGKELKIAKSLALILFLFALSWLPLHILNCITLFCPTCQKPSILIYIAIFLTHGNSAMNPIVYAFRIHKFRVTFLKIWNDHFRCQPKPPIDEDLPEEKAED", "experiment": "[3H]-N6-cyclohexyladenosine binding to rat whole brain membranes (A1 affinity, RBA-1)"}}}
{"smiles": "OC[C@H]1O[C@@H](n2cnc3c(NC4CCCC4)ncnc32)[C@H](O)[C@@H]1O", "note": "[CPA, N^6 -cyclopentyladenosine]", "values": [{"measurement": "percent suppression of locomotion", "setting": "mouse locomotor activity; CPA 2 mg/kg IP", "result": 94, "unit": "%"}, {"measurement": "effect on spontaneous exploratory activity (in words)", "setting": "mouse locomotor activity", "result": "inhibition of spontaneous exploratory activity"}]}
{"smiles": "Nc1nc(Nc2ccccc2)nc2c1ncn2[C@@H]1O[C@H](CO)[C@@H](O)[C@H]1O", "note": "[CV-1808, 2-anilinoadenosine]", "values": [{"measurement": "percent suppression of locomotion", "setting": "mouse locomotor activity; CV-1808 8 mg/kg IP", "result": 83, "unit": "%"}, {"measurement": "effect on spontaneous exploratory activity (in words)", "setting": "mouse locomotor activity", "result": "inhibition of spontaneous exploratory activity"}]}
{"smiles": "CCCn1c(=O)c2[nH]c(C3CCSC3)nc2n(CCC)c1=O", "note": "(stereo not shown) [Example 1, 1,3-Dipropyl-8-(3-tetrahydrothienyl)xanthine]", "values": [{"measurement": "IC50", "setting": "adenosine A2 receptor", "result": 622, "unit": "nM"}, {"measurement": "IC50", "setting": "adenosine A1 receptor", "result": 2, "unit": "nM"}]}
{"smiles": "CCCn1c(=O)c2[nH]c(C3CCCO3)nc2n(CCC)c1=O", "note": "(stereo not shown) [Example 2, 1,3-Dipropyl-8-(2-tetrahydrofuranyl)xanthine]", "values": [{"measurement": "IC50", "setting": "adenosine A2 receptor", "result": 3100, "unit": "nM"}, {"measurement": "IC50", "setting": "adenosine A1 receptor", "result": 20, "unit": "nM"}]}
{"smiles": "CCCn1c(=O)c2[nH]c(C3CCOC3)nc2n(CCC)c1=O", "note": "(stereo not shown) [Example 3, 1,3-Dipropyl-8-(3-tetrahydrofuranyl)xanthine]", "values": [{"measurement": "IC50", "setting": "adenosine A2 receptor", "result": 4650, "unit": "nM"}, {"measurement": "IC50", "setting": "adenosine A1 receptor", "result": 28, "unit": "nM"}]}
{"smiles": "Cn1c(=O)c2nc(C3CCOC3)[nH]c2n(C)c1=O", "note": "(stereo not shown) [Example 4]", "values": [{"measurement": "IC50", "setting": "adenosine A2 receptor", "result": 2000, "unit": "nM"}, {"measurement": "IC50", "setting": "adenosine A1 receptor", "result": 400, "unit": "nM"}]}
{"smiles": "CCCn1c(=O)c2[nH]c(C3CCCS3)nc2n(CCC)c1=O", "note": "(stereo not shown) [Example 5, 1,3-Dipropyl-8-(2-tetrahydrothienyl)xanthine]", "values": [{"measurement": "IC50", "setting": "adenosine A1 receptor", "result": 88, "unit": "nM"}]}
